Patent US11191754B2, “Inhibitors of nucleotidyl transferases and uses in herpes and hepatitis viral infections therefor” (Saint Louis University, priority 2015, dated 2021)
Read-outs that look alike come from different tables or passages of the source.

Tests used:
[1] = MTT cytotoxicity assay in HepDES19 cells; assay type: cell-based; settings: human
Experimental: 1.0×10^4 HepDES19 cells per well were seeded in 96-well plates and incubated in DMEM with 10% FBS plus 1% P/S, 1% non-essential amino acids, and 1% glutamine. Compounds were diluted in medium to the indicated concentrations plus 1% DMSO and added to cells 24 hours after plating, with each concentration tested in triplicate. Medium containing the compound was refreshed daily for the next two days. Thiazolyl blue tetrazolium bromide (MTT, Sigma-Aldrich) was added to 0.25 mg/mL, the cultures were incubated for 60 minutes, metabolites were solubilized in acidic isopropanol, and absorbance was read at 570 nm.

HBV [2] = assay: HBV replication assay in HepDES19 cells; assay type: cell-based, hepatitis B virus; parameters: key to Qualitative HBV replication inhibition assay: **: + DNA suppression <25% and − DNA suppression >60%; *: + DNA suppression <50% of − DNA suppression; settings: for EC50: Hepatitis B virus, HBV replication, HepDES19 cells; for Qualitative HBV replication inhibition assay: plus- vs minus-polarity DNA strand suppression
Experimental: Inhibition of HBV replication was measured in HepDES19 cells as previously described in Cai, et al. (2014). Cells were seeded into 6-well plates and incubated in DMEM/F12, 10% fetal bovine serum (FBS), 1% penicillin/streptomycin (P/S) with 1 μg/mL tetracycline. Tetracycline was withdrawn after 24 hours. The test compound was applied to duplicate wells 48 hours later in medium containing a final DMSO concentration of 1%, and medium containing the compound was refreshed daily for the following two days. Cells were harvested and non-encapsidated nucleic acids were digested with micrococcal nuclease (New England Biolabs). HBV DNA was purified from capsids using QIAamp Cador Pathogen Mini Kit (Qiagen) with proteinase K incubation overnight at 37° C. TaqMan PCR was performed for 40 cycles at an annealing temperature of 60° C. Primers and probe (IDT Inc.) for the plus-polarity strand were: 5′[…]3′ (SEQ ID NO: 1); 5′[…]3′ (SEQ ID NO: 2); 5′/56-FAM/[…]/ZEN/[…]/3IABkFQ (SEQ ID NO: 3). Primers and probe for the minus-polarity strand were: 5′[…]3′ (SEQ ID NO: 4; 5′[…]3′ (SEQ ID NO: 5); 5′/56-FAM/[…]/ZEN/[…]/3IABkFQ (SEQ ID NO: 6).

HSV-1 = assay: Anti-HSV-1 replication assay (virus yield by plaque assay on Vero cells); assay type: cell-based, herpes simplex virus 1 (HSV-1); settings: for HSV-1 Log10 suppression 5 μM / HSV-1 Log10 suppression 50 μM: Vero cells, moi 0.1, 24 h, relative to DMSO control
Experimental: (§1) Vero cells were maintained in Dulbecco's modified Eagle's medium (DMEM) containing 3% newborn calf serum, 3% bovine growth serum, 2 mM L-glutamine and 100 IU/mL penicillin and 0.1 mg/mL streptomycin (P/S). HSV-1 #6 and HSV-2 #1 are de-identified clinical isolates from the Saint Louis University Hospital. Stocks were prepared after a single passage in cell culture and were titered by standard plaque assay (Knipe and Spang, 1982). Wild-type HSV-2 used in FIG. 3 was laboratory strain 333. […] Virus stocks were grown and titered on Vero cells (Morrison and Knipe, 1996).
(§2) Compounds to be screened were diluted in PBS supplemented to contain 2% newborn calf serum and 1% glutamine, and added in 100 μL volume to confluent cell monolayers in 24-well cluster plates. Immediately thereafter HSV-1 and HSV-2, diluted in the supplemented PBS medium, were added to the wells in 50 μl volume such that the final concentration of compound was 50 μM, 5 μM and 1 μM and the multiplicity of infection was 0.1. The plates were incubated at 37° C. for 1 hour and then virus-containing inoculum was removed and the wells were washed once in PBS. Compound, diluted to 50 μM, 5 μM and 1 μM in DMEM supplemented to contain 2% newborn calf serum and 1% each penicillin/streptomycin, was added at 0.5 mL/well. Plates were incubated at 37° C. an additional 23 hours, and then the plates were visually inspected through a phase contrast microscope for cytopathic effect, and for toxic effect. The entire contents of each well were collected by scraping. Samples were frozen at −80° C., and then subsequently thawed, sonicated, and infectious virus titer was determined by standard plaque assay on Vero cell monolayers. Because the compounds were dissolved at 10 mM in 100% DMSO, equivalent dilutions of DMSO were added to additional wells as a control for effects of the diluent. Each experiment was repeated once. EC50 values were determined as above except that serial dilutions of the compound to be tested were prepared starting at 50 μM. The inhibitory values were calculated by non-linear curve-fitting in GraphPad Prism.

HSV-2 = assay: Anti-HSV-2 replication assay (virus yield by plaque assay on Vero cells); assay type: cell-based, herpes simplex virus 2 (HSV-2); settings: for HSV-2 Log10 suppression 5 μM / HSV-2 Log10 suppression 50 μM: Vero cells, moi 0.1, 24 h, relative to DMSO control
Experimental: as §1, §2

HBV [3] = assay: Chou-Talalay combination analysis with Lamivudine against HBV replication; assay type: cell-based, hepatitis B virus; settings: together with Lamivudine; CI <1.0 indicates synergy
Excerpt: Current nucleos(t)ide analog therapy for HBV has converted hepatitis type B from an implacably progressing illness to a controllable disease. However, patients are only very rarely cured, in part due to the incomplete inhibition of HBV replication. The inventors hypothesized that the novel RNaseH inhibitors would work synergistically with the existing nucleos(t)ide analogs because the two classes of drugs target physically distinct active sites on the viral polymerase protein. […] RNAseH inhibitors from two different chemical classes were employed, compound #1 [2-hydroxyisoquinoline-1,3(2H,4H)-dione], an HID, and #46 (β-thujaplicinol), an α-hydroxytropolone, were tested. Chou-Talaly analysis yields a combination index (CI). CI values <1.0 indicate synergy, CIs of approximately 1.0 indicate additive interactions, and CI values >1.0 indicate antagonism. CI values are calculated at various efficacy levels (EC50, EC75, EC90, and EC95), and a weighted CI value favoring higher efficacy levels is also generated. FIGS. 4A & 4B show the results of four experiments employing compound #1 and three with compound #46. […] Therefore, RNAseH inhibitors act strongly synergistically with an approved nucleos(t)ide analog drug against HBV.

HBV RNAseH = assay: Biochemical RNAseH assay with patient-derived variant HBV RNAseH enzymes; parameters: species or system hepatitis B virus; settings: four genotype D patient-derived enzymes; compound at its IC50 (FIGS. 5A & 5B)
Experimental: RNaseH activity was measured using an oligonucleotide-directed RNA cleavage assay as previously described in Hu, et al., Tavis, et al., and Cai, et al. (2013; 2013; and 2014, respectfully). Briefly, 6 μL protein extract was mixed on ice with an internally ^32P-labeled 264 nt RNA derived from the Duck Hepatitis B Virus genome (DRF+ RNA) plus 3 μg oligonucleotide D2507- or its inverse-complement oligonucleotide D2526+ as a negative control. This mixture was incubated with test compounds in 50 mM Tris pH 8.0, 190 mM NaCl, 5 mM MgCl2, 3.5 mM DTT, 0.05% NP40, 6% glycerol, and 1% DMSO at 42° C. for 90 minutes. Cleavage products were resolved by denaturing polyacrylamide gel electrophoresis, detected by autoradiography, and quantified using ImageJ. Non-specific background values were determined from the incorrect oligonucleotide negative control lane and subtracted from all experimental values. IC50 values were then calculated with GraphPad Prism using three-parameter log(inhibitor) vs. response non-linear curve fitting with the curve minimum set to zero to reflect background subtraction.
HBV has 8 genotypes differing in sequence by 8%. Genetic diversity in the RNAseH domain is about 6%, which is easily high enough to modulate viral sensitivity to RNAseH inhibitors. […]

[4] = Mouse liver microsome assay; assay type: in vitro ADME; settings: for ER: extraction ratio; for ER / Non-P450 turn-over / half-life at 1 μM: mouse liver microsomes; for half-life at 1 μM / CLint scaled at 1 μM: 1 μM compound; for half-life at 1 μM: read-out: t ½; for CLint scaled at 1 μM: mouse
Experimental: Microsomal incubations are run at a final P450 concentration of 0.25 μM. […] The mixture is prewarmed for 5 min at 37° C. To initiate the reaction a 12 mM stock of NAPDH (1.2 mM, final concentration) is added to the warmed microsomal mixture and aliquots are removed at 0, 5, 10, 20 and 30 min. […] Samples are vortexed and spun down at 3200 rpm for 5 min. The supernant is transferred to 96-deep well plates and run on LC/MS/MS.

[5] = system: TK-deficient mutant of HSV-2 strain 333, ΔTK-; assay: Replication of TK-deficient HSV-2 mutant in Vero cells; assay type: cell-based, herpes simplex virus 2 (HSV-2); settings: 5 μM, 24 h (FIG. 3)
Experimental: Vero cells were maintained in Dulbecco's modified Eagle's medium (DMEM) containing 3% newborn calf serum, 3% bovine growth serum, 2 mM L-glutamine and 100 IU/mL penicillin and 0.1 mg/mL streptomycin (P/S). HSV-1 #6 and HSV-2 #1 are de-identified clinical isolates from the Saint Louis University Hospital. Stocks were prepared after a single passage in cell culture and were titered by standard plaque assay (Knipe and Spang, 1982). Wild-type HSV-2 used in FIG. 3 was laboratory strain 333. The TK-deficient mutant of HSV-2 strain 333, ΔTK-, contains a 180-bp KpnI-KpnI deletion in the UL23 open reading frame that abrogates TK activity (McDermott, et al, 1984). ΔTK—was the generous gift of Jim Smiley. Virus stocks were grown and titered on Vero cells (Morrison and Knipe, 1996).
ACV is a nucleoside analog prodrug that must be phosphorylated by the viral thymidine kinase (TK) for it to become a substrate for the viral DNA polymerase (Elion, et al., 1977). HSV TK-deficient mutants are therefore insensitive to ACV. […] Vero cells were infected with a laboratory strain of HSV-2 and an engineered TK-deficient mutant of the same strain. […] ACV 5 μM inhibited wild-type HSV-2 replication 100-fold, but it had little effect on the TK-mutant (FIG. 3).

in vitro = assay type: cell-based; settings: African green monkey
Experimental: Qualitative assessments of cytotoxicity were done visually by inspecting the cells in the primary screening assays. For the quantitative assays, cells were plated in 96-well plates at 1.0×10^4 per well. The next day the compounds were added at 0.78 to 100 μM in a final concentration of 1% (v/v) DMSO, and the cells were incubated for 24 hours under conditions identical to those employed for the viral replication inhibition assays. Mitochondrial toxicity was measured by incubating the cells with 0.25 mg/mL thiazolyl blue tetrazolium bromide (MTT, SigmaAldrich Chemical Co.), the cultures were incubated for 60 min, metabolites were solubilized in acidic isopropanol, and absorbance was read at 570 nm. CC50 values were calculated by non-linear curve fitting using GraphPad Prism.
A quantitative toxicity measurement was conducted. Toxicity was assessed by measuring release of intracellular proteases into the culture medium due to cellular lysis. Cells were plated in 96-well plates at 1.0×10^4 per well. The next day compound was added in concentrations ranging from 0.78 to 100 μM in a final concentration of 1% (v/v) DMSO. The cells were incubated for 24 hours under conditions identical to those employed for the viral replication inhibition assays, and then […] according to the manufacturer's instructions. […]

`CC(C)=CCc1ccc(=O)c(O)cc1C(C)C` [#49] gave a CC50 at 3 days [1] of 9 µM.

In the case of `O=c1cc(NCc2ccccc2)c2cccnc2n1O` [#151], the EC50 (HBV [2]) is reported as 4.7 µM, the “Qualitative HBV replication inhibition assay” value (HBV [2]) is reported as “**” and the CC50 at 3 days [1] is reported as 15 µM. For the same compound, the “suppression of HSV-1 replication in cell culture” value (HSV-1; 5 μM or less) was “strongly suppressed” and the “suppression of HSV-2 replication in cell culture” value (HSV-2; 5 μM or less) was “strongly suppressed”.

With `O=C1Cc2ccccc2C(=O)N1O` [#1, 2-hydroxyisoquinoline-1,3(2H,4H)-dione] the “weighted combination index (CI)” value (HBV [3]) was 0.70±0.1 and the “inhibition of HBV RNAseH” value (HBV RNAseH) was “about 50%”.

In the case of `Cc1cc(C2CCCCC2)n(O)c(=O)c1` [#41], the ER [4] is reported as 0.16, the Non-P450 turn-over [4] is reported as “No” and the half-life at 1 μM [4] is reported as over 2 h. For the same compound, the CLint scaled at 1 μM ([4]; microsomes, read-out: CL ‘hep) was 14 mL/min/kg and the CLint scaled at 1 μM ([4]; microsomes, read-out: CL’int) was 17 mL/min/kg.

With `NCc1cccc(-c2ccc(Cc3cc(=O)n(O)c4ncccc34)cc2)c1` [Compound 153] the EC50 (HBV [2]) was 4.1 µM, the “Qualitative HBV replication inhibition assay” value (HBV [2]) was “**” and the CC50 at 3 days [1] was 10 µM.

In the case of `Nc1nc2c(ncn2COCCO)c(=O)[nH]1` [Acyclovir, acyclovir, reference compound], the “inhibition of TK-mutant HSV-2” value [5] is reported as “little effect”, the CC50 at 24 h (in vitro) is reported as over 100 µM and the “HSV-1 Log10 suppression 5 μM” value (HSV-1) is reported as 3.61 log10. For the same compound, the “HSV-1 Log10 suppression 5 μM” value (HSV-1; listed as acyclovir) was 4.22 log10, the “HSV-1 Log10 suppression 50 μM” value (HSV-1) was 5.39 log10 and the “HSV-2 Log10 suppression 5 μM” value (HSV-2) was 3.91 log10. The “HSV-2 Log10 suppression 5 μM” value (HSV-2; listed as acyclovir) was 3.6 log10 and the “HSV-2 Log10 suppression 50 μM” value (HSV-2) was 5.25 log10.

For `Cc1cc(COc2ccc(Oc3ccc(Cl)cc3)cc2)n(O)c(=O)c1` [#211], the EC50 (HBV [2]) was 13 µM, the “Qualitative HBV replication inhibition assay” value (HBV [2]) was “**” and the CC50 at 3 days [1] was 30 µM. For the same compound, the “HSV-1 Log10 suppression 5 μM” value (HSV-1) was 0.08 log10, the “HSV-1 Log10 suppression 50 μM” value (HSV-1) was 1.6 log10 and the “HSV-2 Log10 suppression 5 μM” value (HSV-2) was 0.04 log10. The “HSV-2 Log10 suppression 50 μM” value (HSV-2) was 1.81 log10.

In the case of `C/C(=N\c1ccccc1N)c1c(C)cc(=O)n(O)c1O` [#208], the EC50 (HBV [2]) is reported as 0.69 µM, the “Qualitative HBV replication inhibition assay” value (HBV [2]) is reported as “**” and the CC50 at 3 days [1] is reported as 15 µM. For the same compound, the ER [4] was under 0.1, the Non-P450 turn-over [4] was “No” and the half-life at 1 μM [4] was over 2 h. For the same compound, the CLint scaled at 1 μM ([4]; liver microsomes, read-out: CL ‘hep) was 163 mL/min/kg, the “HSV-1 Log10 suppression 5 μM” value (HSV-1) was 0.15 log10 and the “HSV-1 Log10 suppression 50 μM” value (HSV-1) was 2.63 log10. The “HSV-2 Log10 suppression 5 μM” value (HSV-2) was 0.11 log10 and the “HSV-2 Log10 suppression 50 μM” value (HSV-2) was 0.26 log10.

For `Cc1ccc(O)c(=O)c(O)c1` [#210], the EC50 (HBV [2]) was 1.5 µM, the “Qualitative HBV replication inhibition assay” value (HBV [2]) was “**” and the CC50 at 3 days [1] was 71 µM.
